According to patent US11040052B2, “Methods and pharmaceutical compositions for modulating autophagy in a subject in need thereof” (INSERM (INSTITUT NATIONAL DE LA SANTE ET DE LA RECHERCHE …, priority 2013, dated 2021):
Entries after “also recorded” stand apart in the source; their conditions may differ.

Legend:
[1] = system: starvation-induced autophagy in mice tissues; test: Starved mice: tissue AcCoA, protein acetylation and starvation-induced autophagy; format: in vivo
Protocol: C57BL/6 mice (Charles River Laboratory, […], France) were bred and maintained according to both the FELASA and the Animal Experimental Ethics Committee Guidelines (Val de Marne, France). Mice were housed in a temperature-controlled environment with 12 h light/dark cycles and received food and water ad libitum. For HC-related experiments, mice were injected intraperitoneally with a single 100 mg/kg dose and 6 h later were sacrificed and tissues were immediately frozen in liquid nitrogen. […] Tissue extracts were then centrifuged at 12,000 g at 4° C. and supernatants were collected. Protein concentration in the supernatants was evaluated by the bicinchoninic acid technique (BCA protein assay kit, Pierce Biotechnology, Rockford, Ill.). For hydroxycitrate-related weight-loss experiments, autophagy-deficient Atg4b^-/- mice were used. Atg4b^-/- mice have been previously described (Mariño et al., 2010). For HC-, spermidine-, and resveratrol-related experiments (tumour growth) mice were intraperitoneally injected with respectively 100 mg/kg, 50 mg/kg and 100 mg/kg doses at day 8 and day 9. At day 9, mice were intraperitoneally injected with 2 mg/kg single dose of Mitoxanthrone. For starvation related experiment (tumour growth) mice were treated as previously described (Fabrizio et. al., 2010). To avoid post-mortem autophagy induction, dead mice were immediately perfused with 4% paraformaldehyde (w:v in PBS, pH 7.4). Tissues were then harvested and further fixed with the same solution for at least 4 h, followed by treatment with 15% sucrose (w:v in PBS) for 4 h and with 30% sucrose (w:v in PBS) overnight. Tissue samples were embedded in Tissue-Tek OCT compound (Sakura Finetechnical Co. Ltd., Tokyo, Japan) and stored at -70° C. […] In each organ, the number of GFP-LC3 dots was counted in five independent visual fields from at least five mice using a TCS SP2 confocal fluorescence microscope (Leica Microsystems GmbH). […]

[2] = system: CD4+CD25+Foxp3+ Tregs in tumor bed; test: Detection of tumor-infiltrated Tregs (flow cytometry); format: in vivo, mice; conditions: compared with MTX group
Protocol: Tumors were digested using Miltenyi Biotec tumor digestion kit according to manufacturer's protocol. Single cells were resuspended in RPMI 1640 and sequentially passed through 100 μm and 70 μM nylon cell strainers (BD Biosciences). Leukocytes were purified using Miltenyi Biotec magnetic beads conjugated to monoclonal anti-mouse CD45 (clone 30F11.1) according to the supplier's recommendations. Prior to staining of TIL populations for flow cytometry analysis, samples were incubated with LIVE/DEAD® Fixable Yellow Dead Cell dyes (Invitrogen) to discriminate viable cells from damaged cells. TILs were incubated with antibodies against CD16/CD32 before staining with fluorescent-labeled antibodies targeting T-cell surface markers. Then, cells were permeabilized and fixed with eBioscience Foxp3/Transcription Factor Staining Buffer Set and stained for intracellular Foxp3. Data were acquired using a MACSQuant flow cytometer (Miltenyi Biotec) and analyzed with FlowJo v. X PC software (Treestar, Oreg., USA). Tregs were defined as CD3+ CD4+ CD8− CD25+ Foxp3+ T-cell population.

[3] = system: MCA205 cells; test: Labeling of vesicular ATP in vitro (quinacrine/PI); format: cell-based, murine; conditions: compared to MTX alone
Protocol: MCA205 cells were loaded with […] quinacrine in Krebs-Ringer solution (125 mM NaCl, 5 mM KCl, 1 mM MgSO4, 0.7 mM KH2PO4, 2 mM CaCl2), 6 mM glucose and 25 mM HEPES buffer, pH 7.4) for 30 min at 37 1C. Thereafter, cells were co-stained for 10 min with […] propidium iodide (PI) and […] Hoechst 33342 (both from Molecular Probes-Life Technologies), rinsed with Krebs-Ringer solution and analyzed by automated fluorescence microscopy.

[4] = system: CT26 derived tumors expressing pmeLUC; test: Real time in vivo imaging of ATP release; set-up: species or system mice; conditions: autophagy competent tumors, 48 hours post chemotherapy
Protocol: BALB/c mice were subcutaneously inoculated with 3×10^5 SCR or ATG5^KD CT26 clones stably expressing pmeLUC probe, and tumor growth was monitored every 2 days. When tumor became palpable (about 8 days after injection), mice were divided in four experimental groups. The first one was intraperitoneally injected with 200 µl PBS and after 48 hs from the first injection, 200 µl of PBS was injected again (control group). The second one was injected the first time with 100 mg/kg hydroxycitrate in 200 µl of PBS and 48 hs later again 100 mg/kg hydroxycitrate in 200 µl of PBS. The third one was intraperitoneally injected with 100 mg/kg hydroxycitrate in 200 µl of PBS and 48 hs later with 100 mg/kg hydroxycitrate in 200 µl of PBS and 5.17 mg/Kg MTX in 200 µl di PBS. The last group were injected the first time with 200 µl of PBS and 48 hs later with 5.17 mg/Kg MTX in 200 µl di PBS. Thereafter, mice were anesthetized and imaged with Xenogen—IVIS® Lumina II (Caliper, Hopkinton, Mass., USA). D-luciferin (150 mg/kg) was intraperitoneally administered to mice 15 minutes before acquisitions, which were performed immediately before and after 48 hrs from compound injections. The regions of interest were identified around tumor sites and in vivo luminescence was identified as photons/s using the Living ImageH software (Caliper).

Structure (SMILES)	AcCoA levels in mice tissues after 24 h starvation ([1]; intraperitoneal injection, starved mice, vs vehicle)	cytoplasmic protein acetylation in tissues of starved mice ([1]; parenteral administration)	starvation-induced autophagy in vivo ([1]; starved mice, LC3 lipidation and GFP-LC3 in heart and muscle)	Foxp3+ Tregs in tumor bed, combined with MTX [2]	ATP release in vitro, combined with MTX [3]	extracellular ATP release in vivo, combined with MTX [4]
COC(=O)CCC(=O)C(=O)OC [DMKG, dimethyl-α-ketoglutarate]	increased cardiac AcCoA levels; also recorded: avoided the depletion of AcCoA	avoided the depletion of AcCoA, the deacetylation of cytosolic proteins; also recorded: avoided the depletion of AcCoA and the deacetylation of cytoplasmic proteins	inhibited starvation-induced autophagy in vivo; also recorded: efficiently reduced autophagy in vivo			
O=C(O)CC(O)(C(=O)O)C(O)C(=O)O (stereo not drawn) [HC, hydroxycitrate]				reduces Treg infiltration in tumor bed; also recorded: particularly efficient in reducing the frequency of Foxp3^+ Tregs in tumors	marked increase in ATP release; also recorded: particularly efficient in inducing the autophagy-dependent release of ATP	significantly enhances ATP release; also recorded: higher level of extracellular ATP accumulation
